# Data reported in patent publication US20060069149A1, “Thiadibenzoazulene derivatives for the treatment of inflammatory diseases” (Pliva-Istrazivacki Institut d.o.o., priority 2003, published 2006).
# Tested on: TNF-α and IL-1 secretion
# Assay: investigated assays, not said which: TNF-α and IL-1 secretion in human PBMC, in mouse peritoneal macrophages, LPS-induced secretion in mice, writhing assay, LPS-induced shock in mice
# Conditions: active means: PBMC IC50 20 μM or lower; mouse macrophages IC50 10 μM or lower; 30% or more TNF-α inhibition at 10 mg/kg; analgetic activity as acetylsalicylic acid or better; survival 40% or more at 30 mg/kg
# Description: The inhibitory action of the present compounds upon TNF-α and IL-1 secretion was determined by the following in vitro and in vivo experiments:
# Determination of TNF-α and IL-1 Secretion in Human Peripheral Blood Mononuclear Cells in vitro
# Human peripheral blood mononuclear cells (PBMC) were prepared from heparinized whole blood after separating PBMC on Ficoll-Paque™Plus (Amersham-Pharmacia). […] The IL-1 level was determined in an assay under the same conditions and with the same number of cells and the same concentration of the stimulus by ELISA procedure (R&D Systems). The percentage of inhibition of TNF-α or IL-1 production was calculated by the equation: % inhibition=[1−(TS−NC)/(PC−NC)]*100. […]
# In order to obtain peritoneal macrophages, Balb/C mouse strain males, age 8 to 12 weeks, were injected i.p. with 300 μg of zymosan (SIGMA) dissolved in a phosphate buffer (PBS) in a total volume of 0.1 ml/mouse. […] The TNF-α level in the cell supernatant was determined by ELISA procedure (R&D Systems, Biosource). IL-1 level was determined in an assay, identical to an assay for TNF-a by ELISA procedure (R&D Systems). The percentage of inhibition of TNF-α or IL-1 production was calculated by the equation: % inhibition=[1−(TS−NC)/(PC−NC)]*100. […]
compound,measurement,value
"CCOC(=O)c1cc2c(s1)-c1ccc(OCCN3CCCC3)cc1Oc1ccccc1-2 [Example 4, 10-(2-Pyrrolidin-1-yl-ethoxy)-8-oxa-1-thia-dibenzo[e,h]azulene-2-carboxylic acid ethyl ester]",activity in the investigated assays,activity in at least two investigated assays
"CN(C)CCCOCc1cc2c(s1)-c1ccc(OCCCN(C)C)cc1Oc1ccccc1-2 [Example 14, {3-[2-(3-Dimethylamino-propoxymethyl)-8-oxa-1-thia-dibenzo[e,h]azulene-10-yloxy]-propyl}-dimethyl-amine]",activity in the investigated assays,activity in at least two investigated assays
